Test results reported in patent US20250066290A1, “DHODH INHIBITORS CONTAINING A CARBOXYLIC ACID BIOISOSTERE” (IMMUNIC AG, priority 2021, published 2025).

Assays:
[1] = test system: SARS-CoV-2 Delta variant; assay: microbe, parasite or virus in culture; format: cell-based; settings: Severe acute respiratory syndrome coronavirus 2; Caco-2 cells, dsRNA immunofluorescence
[2] = test system: SARS-CoV-2 Omicron variant; assay: microbe, parasite or virus in culture; format: cell-based; settings: Severe acute respiratory syndrome coronavirus 2; Caco-2 cells, dsRNA immunofluorescence; read-out: EC50 Omikron

SMILES: [2H]C([2H])([2H])Oc1cccc(-c2cc(F)c(NC(=O)c3ccsc3C(=O)NOC)c(F)c2)c1 [Example 9, N3-(3,5-Difluoro-3′-(methoxy-d3)-[1,1′-biphenyl]-4-yl)-N2-methoxythiophene-2,3-di-carboxamide]
- EC50 [1]: < 3 nM
- EC50 [2]: < 3 nM
